{
  "source": "patent US11572590B2",
  "about": "“Methods for evaluating tumor cell spheroids using 3D microfluidic cell culture device” (Dana-Farber Cancer Institute, Inc., priority 2017, dated 2023)",
  "key": {"[1]": {"molecular_target": "off-target kinases (Homo sapiens, UniProt P36888)", "test": "SelectScreen Kinase Profiling, single point inhibition and IC50 for off-target kinases", "assay_type": "biochemical", "design": "other: FLT3 ITD; 1000 μM", "conditions": "FLT3 ITD; 1000 μM; LanthaScreen Binding", "experimental": "Biochemical single point inhibition and IC50 concentrations for TBK1, IKKε (IKBKE), and off-target kinases were determined at ThermoFisher Scientific using SelectScreen Kinase Profiling Services (Madison, Wis., USA) (Tables S4A and S4B-1-7). To determine cellular potency, the human colorectal cancer carcinoma cell line HCT116 (ATCC, Manassas, Va.) was maintained in T175 flasks in complete RPMI medium; RPMI 1640 supplemented with 10% FBS, 1× Penicillin-Streptomycin solution and 1×MEM (non-essential amino acids). HCT116 cells were grown to 90-95% confluency in T175 flasks containing complete RPMI medium and transfected in bulk using Lipofectamine 2000 (Invitrogen, Carlsbad, Calif.) with 70 μg of ISG54-luciferase reporter plasmid (Elim Biopharmaceuticals Inc., Hayward, Calif.). The reporter plasmid contains a luciferase gene expression cassette under the transcriptional regulation of the promoter of the human interferon stimulated gene 54 (ISG54). Transfection of the cells was allowed to take place for 6 hours, after which the cells were harvested by treatment with 0.25% trypsin EDTA (Corning Inc., Corning, N.Y.). Trypsinized cells were added to 384-well poly-d-lysine treated black clear bottom tissue culture assay plates (Greiner Bio-One GmbH, Kremsmünster, Austria) at a density of 20,000 cells/well in 80 μL of complete RPMI medium and incubated overnight. After 16-18 hours post-transfection, the assay plates were washed with PBS (Corning Inc., Corning, N.Y.), followed by addition of 80 μL/well of serum-free RPMI 1640 medium containing 1× Penicillin-Streptomycin solution, 1×MEM and 350 nL of DMSO or titrations of Compound 1. […] The assay plates were incubated for 5 hours at 37° C., followed by addition of One-Glo luciferase firefly reagent (Promega, Madison, Wis.) at 1:1 volume/well and luminescence was measured in an EnVision Multilabel Plate Reader (PerkinElmer, Santa Clara, Calif.). The EC50 values were calculated from the fit of the dose-response curves to a four-parameter equation. […]"}, "[2]": {"molecular_target": "T1, IKKε (IKBKE) (Homo sapiens, UniProt Q14164)", "T1 sequence (Q14164 1-716)": "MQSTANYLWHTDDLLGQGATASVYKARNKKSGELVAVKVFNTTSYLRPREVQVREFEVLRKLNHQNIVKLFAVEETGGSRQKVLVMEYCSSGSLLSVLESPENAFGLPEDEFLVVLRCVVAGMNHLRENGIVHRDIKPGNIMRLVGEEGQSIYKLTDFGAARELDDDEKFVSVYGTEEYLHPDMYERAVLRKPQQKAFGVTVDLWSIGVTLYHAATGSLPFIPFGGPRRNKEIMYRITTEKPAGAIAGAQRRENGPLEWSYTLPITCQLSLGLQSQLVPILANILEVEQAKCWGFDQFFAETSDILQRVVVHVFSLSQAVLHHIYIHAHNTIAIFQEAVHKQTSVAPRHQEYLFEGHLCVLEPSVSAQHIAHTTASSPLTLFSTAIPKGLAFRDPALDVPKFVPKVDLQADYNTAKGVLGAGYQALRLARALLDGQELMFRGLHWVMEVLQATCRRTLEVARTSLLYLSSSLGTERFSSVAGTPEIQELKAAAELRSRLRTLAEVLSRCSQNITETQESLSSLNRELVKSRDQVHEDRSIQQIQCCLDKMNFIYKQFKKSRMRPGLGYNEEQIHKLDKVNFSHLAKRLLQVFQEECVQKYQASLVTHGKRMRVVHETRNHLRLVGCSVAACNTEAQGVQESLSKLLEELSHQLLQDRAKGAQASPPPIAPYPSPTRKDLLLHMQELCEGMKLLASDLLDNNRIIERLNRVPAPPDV", "test": "SelectScreen Kinase Profiling, IC50 for IKKε (IKBKE)", "assay_type": "biochemical", "conditions": "ATP Km app, ZLYTE; for inhibition: IKBKE (IKK epsilon)", "experimental": "Biochemical single point inhibition and IC50 concentrations for TBK1, IKKε (IKBKE), and off-target kinases were determined at ThermoFisher Scientific using SelectScreen Kinase Profiling Services (Madison, Wis., USA) (Tables S4A and S4B-1-7). To determine cellular potency, the human colorectal cancer carcinoma cell line HCT116 (ATCC, Manassas, Va.) was maintained in T175 flasks in complete RPMI medium; RPMI 1640 supplemented with 10% FBS, 1× Penicillin-Streptomycin solution and 1×MEM (non-essential amino acids). HCT116 cells were grown to 90-95% confluency in T175 flasks containing complete RPMI medium and transfected in bulk using Lipofectamine 2000 (Invitrogen, Carlsbad, Calif.) with 70 μg of ISG54-luciferase reporter plasmid (Elim Biopharmaceuticals Inc., Hayward, Calif.). The reporter plasmid contains a luciferase gene expression cassette under the transcriptional regulation of the promoter of the human interferon stimulated gene 54 (ISG54). Transfection of the cells was allowed to take place for 6 hours, after which the cells were harvested by treatment with 0.25% trypsin EDTA (Corning Inc., Corning, N.Y.). Trypsinized cells were added to 384-well poly-d-lysine treated black clear bottom tissue culture assay plates (Greiner Bio-One GmbH, Kremsmünster, Austria) at a density of 20,000 cells/well in 80 μL of complete RPMI medium and incubated overnight. After 16-18 hours post-transfection, the assay plates were washed with PBS (Corning Inc., Corning, N.Y.), followed by addition of 80 μL/well of serum-free RPMI 1640 medium containing 1× Penicillin-Streptomycin solution, 1×MEM and 350 nL of DMSO or titrations of Compound 1. Compound 1 titrations were generated by 1.5-fold dilution steps in two overlapping serial dilution series to generate a 40-point compound dose range. After incubation at 37° C. for 1 hour, the cells were stimulated with Poly(I:C) (InvivoGen, San Diego, Calif.) at a final concentration of 15 μg/mL in Optimem media (Life Technologies, Rockville, Md.). The assay plates were incubated for 5 hours at 37° C., followed by addition of One-Glo luciferase firefly reagent (Promega, Madison, Wis.) at 1:1 volume/well and luminescence was measured in an EnVision Multilabel Plate Reader (PerkinElmer, Santa Clara, Calif.). The EC50 values were calculated from the fit of the dose-response curves to a four-parameter equation. All EC50 values represent geometric mean values of a minimum of four determinations."}, "[3]": {"system": "human CD4+ and CD8+ T cells", "test": "IL-2 secretion by anti-CD3/anti-CD28 stimulated T cells", "assay_type": "cell-based", "conditions": "dose-titration, 24 hours", "experimental": "Freshly isolated human CD4+ and CD8+ T cells were obtained from AllCells (Alameda, Calif., USA). Cells were spun down and resuspended in serum free Xvivo15 media (Lonza Walkersville, Inc., Chicago, Ill., USA) supplemented with 5 ng/mL […] and incubated overnight at 37° C. Cells were plated on anti-CD3 coated plates (5 μg/mL OKT3, eBioscience, Dallas, Tex., USA, overnight) with 2 μg/mL anti-CD28 (eBioscience, Dallas, Tex., USA). Cells are treated in replicate plates with a dose-titration of Compound 1 for 24 hours for IL-2 and 96 hours for IFNγ. IL-2 and IFNγ in the supernatant were measured using single- or multi-plex immunoassay (Mesoscale Discovery, Rockville, Md., USA). Jurkat T cell leukemia cells (clone E61 obtained from ATCC) plated on anti-CD3 coated plates were treated with a dose titration of Compound 1 for 24 hours. IL-2 in the supernatant was measured as described above."}},
  "note": "Read-outs that look alike come from different tables or passages of the source.",
  "data": [
    {"smiles": "N#Cc1cc(-c2ncnc(Nc3ccc(N4CCN(C5COC5)CC4)cc3)n2)ccc1OC1CCOCC1", "note": "[Compound 1, 5-(4-((4-(4-(oxetan-3-yl)piperazin-1-yl)phenyl)amino)-1,3,5-triazin-2-yl)-2-((tetrahydro-2H-pyran-4-yl)oxy)benzonitrile]", "values": [
      {"measurement": "% Inhibition 1", "setting": "[1]", "value": 64, "unit": "%"},
      {"measurement": "% Inhibition 2", "setting": "[1]", "value": 62, "unit": "%"},
      {"measurement": "% Inhibition Avg", "setting": "[1]", "value": 63, "unit": "%"},
      {"measurement": "inhibition", "setting": "[2]; read-out: % Inhibition 1", "value": 106, "unit": "%"},
      {"measurement": "inhibition", "setting": "[2]; read-out: % Inhibition 2", "value": 103, "unit": "%"},
      {"measurement": "inhibition", "setting": "[2]; read-out: % Inhibition Avg", "value": 105, "unit": "%"},
      {"measurement": "Hillslope", "setting": "[2]", "value": 1.06},
      {"measurement": "IC50", "setting": "[2]", "value": 5.59, "unit": "nM"},
      {"measurement": "fold selectivity (IKBKE)", "setting": "[2]; IC50 relative to IKBKE IC50", "value": 1.0, "unit": "fold"},
      {"measurement": "fold selectivity (TBK1)", "setting": "[2]; IC50 relative to TBK1 IC50", "value": 5.4, "unit": "fold"},
      {"measurement": "secretion of IL-2 from purified CD4+ and CD8+ T cells", "setting": "[3]", "value": "enhanced secretion"}
    ]}
  ]
}
